In US20160199351A1, “COMPOSITIONS AND METHODS FOR INHIBITING FUNGAL INFECTIONS” (priority 2015, published 2016):
Values after ≈ are worked out from the molar mass of the structure shown. Where two headings read alike, the source gives them in different places.

Columns and labels:
[1] = tested on: C. krusei; test: MIC against Candida species (Table 4); details: Pichia kudriavzevii; for MIC: read-out: MIC 100%
[2] = tested on: Rhizopus oryzae; test: MIC (Table 5); details: Rhizopus arrhizus
[3] = tested on: Fusarium oxysporum; test: MIC, CLSI M38-A2 broth dilution (Table 1); format: cell-based
[4] = tested on: Pneumocystis murina; test: In vitro ATP content of Pneumocystis (luciferin-luciferase assay); details: for IC50: Pneumocystis murina, read-out: IC50 (reduction in ATP)
[5] = tested on: Coccidioides immitis/posadasii; format: cell-based
[6] = tested on: C. glabrata; test: MIC against Candida species (Table 4); details: for MIC50 / MIC: Nakaseomyces glabratus; for MIC: read-out: MIC 100%
[7] = tested on: Apophysomyces; test: MIC, CLSI M38-A2 broth dilution (Table 1); format: cell-based
[8] = tested on: Pneumocystis carinii; test: In vitro ATP content of Pneumocystis (luciferin-luciferase assay); details: for IC50: Pneumocystis carinii, read-out: IC50 (reduction in ATP)
[9] = tested on: Blastomyces dermatitidis; test: MIC, macrodilution method (Table 1); format: cell-based; details: 96 hours
[10] = tested on: Aspergillus fumigatus; test: Recovery of Aspergillus fumigatus mycelia growth after removal of antifungal drugs (MTT); format: cell-based; details: treated 12 hours, drug removed, 24 hours more
[11] = tested on: Lomentospora prolificans; test: MIC, CLSI M38-A2 broth dilution (Table 1); format: cell-based; details: isolate LP1, 48 hours
[12] = tested on: Histoplasma capsulatum; test: organism not typed; format: cell-based
[13] = tested on: Scedosporium apiospermum; test: MIC, CLSI M38-A2 broth dilution (Table 1); format: cell-based
[14] = tested on: Fusarium solani; test: MIC, CLSI M38-A2 broth dilution (Table 1); format: cell-based; details: isolate FS1, 48 hours

NCC(=O)Nc1ccc(-n2nc(C(F)(F)F)cc2-c2ccc3c(ccc4ccccc43)c2)cc1 [AR-12, 2-amino-N-(4-(5-(phenanthren-2-yl)-3-(trifluoromethyl)-1H-pyrazol-1-yl)phenyl)acetamide]
MIC50 ([1]; 24 h): 2 µg/mL (≈ 4.34 µM) | MIC ([1]; 24 h): 4 µg/mL (≈ 8.69 µM) | MIC50 ([1]; 48 h): 4 µg/mL (≈ 8.69 µM) | MIC ([1]; 48 h): 4 µg/mL (≈ 8.69 µM) | MIC50 ([2]; 24 h, isolate R-1, 24 hrs): 4 µg/mL (≈ 8.69 µM) | MIC50 ([2]; 24 h, isolate R-2, 24 hrs): 4 µg/mL (≈ 8.69 µM) | MIC50 ([2]; 24 h, isolate R-3, 24 hrs): 4 µg/mL (≈ 8.69 µM) | MIC50 ([2]; 24 h, isolate R-4, 24 hrs): 4 µg/mL (≈ 8.69 µM) | MIC50 ([2]; 24 h, isolate R-5, 24 hrs): 2 µg/mL (≈ 4.34 µM) | MIC50 ([2]; 24 h, isolate R-6, 24 hrs): 4 µg/mL (≈ 8.69 µM) | MIC ([2]; 24 h, read-out: MIC 100%, isolate R-1, 24 hrs): 4 µg/mL (≈ 8.69 µM) | MIC ([2]; 24 h, read-out: MIC 100%, isolate R-2, 24 hrs): 4 µg/mL (≈ 8.69 µM) | MIC ([2]; 24 h, read-out: MIC 100%, isolate R-3, 24 hrs): 4 µg/mL (≈ 8.69 µM) | MIC ([2]; 24 h, read-out: MIC 100%, isolate R-4, 24 hrs): 4 µg/mL (≈ 8.69 µM) | MIC ([2]; 24 h, read-out: MIC 100%, isolate R-5, 24 hrs): 4 µg/mL (≈ 8.69 µM) | MIC ([2]; 24 h, read-out: MIC 100%, isolate R-6, 24 hrs): 4 µg/mL (≈ 8.69 µM) | MIC50 ([2]; isolate R-1, 48/72 hrs): 4 µg/mL (≈ 8.69 µM) | MIC50 ([2]; isolate R-2, 48/72 hrs): 8 µg/mL (≈ 17.4 µM) | MIC50 ([2]; isolate R-3, 48/72 hrs): 4 µg/mL (≈ 8.69 µM) | MIC50 ([2]; isolate R-4, 48/72 hrs): 4 µg/mL (≈ 8.69 µM) | MIC50 ([2]; isolate R-5, 48/72 hrs): 4 µg/mL (≈ 8.69 µM) | MIC50 ([2]; isolate R-6, 48/72 hrs): 4 µg/mL (≈ 8.69 µM) | MIC ([2]; read-out: MIC 100%, isolate R-1, 48/72 hrs): 4 µg/mL (≈ 8.69 µM) | MIC ([2]; read-out: MIC 100%, isolate R-2, 48/72 hrs): 8 µg/mL (≈ 17.4 µM) | MIC ([2]; read-out: MIC 100%, isolate R-3, 48/72 hrs): 4 µg/mL (≈ 8.69 µM) | MIC ([2]; read-out: MIC 100%, isolate R-4, 48/72 hrs): 4 µg/mL (≈ 8.69 µM) | MIC ([2]; read-out: MIC 100%, isolate R-5, 48/72 hrs): 4 µg/mL (≈ 8.69 µM) | MIC ([2]; read-out: MIC 100%, isolate R-6, 48/72 hrs): 4 µg/mL (≈ 8.69 µM) | MIC 50% ([3]; isolate FO1, 48 hours): 4 gg/m1 | MIC 100% ([3]; isolate FO1, 48 hours): 4 gg/m1 | MIC 50% ([3]; isolate FO2, 48 hours): 4 gg/m1 | MIC 100% ([3]; isolate FO2, 48 hours): 4 gg/m1 | IC50 ([4]; 24 h): 9.69 µg/mL (≈ 21 µM) | IC50 ([4]; 48 h): 2.77 µg/mL (≈ 6.02 µM) | IC50 ([4]; 72 h): 1.78 µg/mL (≈ 3.87 µM) | Pm % Reduction in ATP/Vehicle Control ([4]; Table 3, 1 μg/ml, 24 hours): 3.51% | Pm % Reduction in ATP/Vehicle Control ([4]; Table 3, 1 μg/ml, 48 hours): 5.76% | Pm % Reduction in ATP/Vehicle Control ([4]; Table 3, 1 μg/ml, 72 hours): 15.48% | Pm % Reduction in ATP/Vehicle Control ([4]; Table 3, 10 μg/ml, 24 hours): 54.02% | Pm % Reduction in ATP/Vehicle Control ([4]; Table 3, 10 μg/ml, 48 hours): 85.38% | Pm % Reduction in ATP/Vehicle Control ([4]; Table 3, 10 μg/ml, 72 hours): 94.23% | Pm % Reduction in ATP/Vehicle Control ([4]; Table 3, 100 μg/ml, 24 hours): 83.6% | Pm % Reduction in ATP/Vehicle Control ([4]; Table 3, 100 μg/ml, 48 hours): 97.76% | Pm % Reduction in ATP/Vehicle Control ([4]; Table 3, 100 μg/ml, 72 hours): 98.09% | MIC 50% ([5]; isolate Cocci1, 48 hours): 1 gg/m1 | MIC 100% ([5]; isolate Cocci1, 48 hours): 1 gg/m1 | MIC 50% ([5]; isolate Cocci2, 48 hours): 1 gg/m1 | MIC 100% ([5]; isolate Cocci2, 48 hours): 1 gg/m1 | MIC 50% ([5]; isolate Cocci3, 48 hours): 2 gg/m1 | MIC 100% ([5]; isolate Cocci3, 48 hours): 2 gg/m1 | MIC50 ([6]; 24 h, isolate CG-1, 24 hrs): 4 µg/mL (≈ 8.69 µM) | MIC50 ([6]; 24 h, isolate CG-2, 24 hrs): 4 µg/mL (≈ 8.69 µM) | MIC50 ([6]; 24 h, isolate CG-3, 24 hrs): 4 µg/mL (≈ 8.69 µM) | MIC50 ([6]; 24 h, isolate CG-4, 24 hrs): 4 µg/mL (≈ 8.69 µM) | MIC50 ([6]; 24 h, isolate CG-5, 24 hrs): 4 µg/mL (≈ 8.69 µM) | MIC50 ([6]; 24 h, isolate CG-6, 24 hrs): 4 µg/mL (≈ 8.69 µM) | MIC50 ([6]; 24 h, isolate CG-7, 24 hrs): 2 µg/mL (≈ 4.34 µM) | MIC50 ([6]; 24 h, isolate CG-8, 24 hrs): 4 µg/mL (≈ 8.69 µM) | MIC50 ([6]; 24 h, isolate CG-9, 24 hrs): 2 µg/mL (≈ 4.34 µM) | MIC50 ([6]; 24 h, isolate CG-10, 24 hrs): 2 µg/mL (≈ 4.34 µM) | MIC ([6]; 24 h): 4 µg/mL (≈ 8.69 µM) | MIC50 ([6]; 48 h, isolate CG-1, 48 hrs): 4 µg/mL (≈ 8.69 µM) | MIC50 ([6]; 48 h, isolate CG-2, 48 hrs): 4 µg/mL (≈ 8.69 µM) | MIC50 ([6]; 48 h, isolate CG-3, 48 hrs): 4 µg/mL (≈ 8.69 µM) | MIC50 ([6]; 48 h, isolate CG-4, 48 hrs): 4 µg/mL (≈ 8.69 µM) | MIC50 ([6]; 48 h, isolate CG-5, 48 hrs): 4 µg/mL (≈ 8.69 µM) | MIC50 ([6]; 48 h, isolate CG-6, 48 hrs): 4 µg/mL (≈ 8.69 µM) | MIC50 ([6]; 48 h, isolate CG-7, 48 hrs): 4 µg/mL (≈ 8.69 µM) | MIC50 ([6]; 48 h, isolate CG-8, 48 hrs): 4 µg/mL (≈ 8.69 µM) | MIC50 ([6]; 48 h, isolate CG-9, 48 hrs): 4 µg/mL (≈ 8.69 µM) | MIC50 ([6]; 48 h, isolate CG-10, 48 hrs): 4 µg/mL (≈ 8.69 µM) | MIC ([6]; 48 h): 4 µg/mL (≈ 8.69 µM) | MIC 100% ([6]; isolate CG-1, 24 hrs): 4 µg/mL (≈ 8.69 µM) | MIC 100% ([6]; isolate CG-1, 48 hrs): 4 µg/mL (≈ 8.69 µM) | MIC 100% ([6]; isolate CG-2, 24 hrs): 4 µg/mL (≈ 8.69 µM) | MIC 100% ([6]; isolate CG-2, 48 hrs): 4 µg/mL (≈ 8.69 µM) | MIC 100% ([6]; isolate CG-4, 24 hrs): 4 µg/mL (≈ 8.69 µM) | MIC 100% ([6]; isolate CG-4, 48 hrs): 4 µg/mL (≈ 8.69 µM) | MIC 100% ([6]; isolate CG-5, 24 hrs): 4 µg/mL (≈ 8.69 µM) | MIC 100% ([6]; isolate CG-5, 48 hrs): 4 µg/mL (≈ 8.69 µM) | MIC 100% ([6]; isolate CG-6, 24 hrs): 4 µg/mL (≈ 8.69 µM) | MIC 100% ([6]; isolate CG-6, 48 hrs): 4 µg/mL (≈ 8.69 µM) | MIC 100% ([6]; isolate CG-7, 24 hrs): 4 µg/mL (≈ 8.69 µM) | MIC 100% ([6]; isolate CG-7, 48 hrs): 4 µg/mL (≈ 8.69 µM) | MIC 100% ([6]; isolate CG-8, 24 hrs): 4 µg/mL (≈ 8.69 µM) | MIC 100% ([6]; isolate CG-8, 48 hrs): 4 µg/mL (≈ 8.69 µM) | MIC 100% ([6]; isolate CG-9, 24 hrs): 4 µg/mL (≈ 8.69 µM) | MIC 100% ([6]; isolate CG-9, 48 hrs): 4 µg/mL (≈ 8.69 µM) | MIC 100% ([6]; isolate CG-10, 24 hrs): 4 µg/mL (≈ 8.69 µM) | MIC 100% ([6]; isolate CG-10, 48 hrs): 4 µg/mL (≈ 8.69 µM) | MIC 50% ([7]; isolate A1, 24 hours): 2 gg/m1 | MIC 100% ([7]; isolate A1, 24 hours): >16 gg/m1 | MIC 50% ([7]; isolate A2, 24 hours): 2 gg/m1 | MIC 100% ([7]; isolate A2, 24 hours): >16 gg/m1 | IC50 ([8]; 24 h): 41.3 µg/mL (≈ 89.7 µM) | IC50 ([8]; 48 h): 18.3 µg/mL (≈ 39.8 µM) | IC50 ([8]; 72 h): 4.82 µg/mL (≈ 10.5 µM) | Pm % Reduction in ATP/Vehicle Control ([8]; Table 2, 1 μg/ml, 24 hours): 0% | Pm % Reduction in ATP/Vehicle Control ([8]; Table 2, 1 μg/ml, 48 hours): 1.76% | Pm % Reduction in ATP/Vehicle Control ([8]; Table 2, 1 μg/ml, 72 hours): 0.49% | Pm % Reduction in ATP/Vehicle Control ([8]; Table 2, 10 μg/ml, 24 hours): 0% | Pm % Reduction in ATP/Vehicle Control ([8]; Table 2, 10 μg/ml, 48 hours): 16.68% | Pm % Reduction in ATP/Vehicle Control ([8]; Table 2, 10 μg/ml, 72 hours): 59.81% | Pm % Reduction in ATP/Vehicle Control ([8]; Table 2, 100 μg/ml, 24 hours): 97.31% | Pm % Reduction in ATP/Vehicle Control ([8]; Table 2, 100 μg/ml, 48 hours): 97.2% | Pm % Reduction in ATP/Vehicle Control ([8]; Table 2, 100 μg/ml, 72 hours): 99.04% | MIC 50% ([9]; isolate BD1, macrodilution): 2 gg/m1 | MIC 100% ([9]; isolate BD1, macrodilution): 4 gg/m1 | MIC 50% ([9]; isolate BD2, macrodilution): 1 gg/m1 | MIC 100% ([9]; isolate BD2, macrodilution): 2 gg/m1 | MIC 50% ([9]; isolate BD3, macrodilution): 1 gg/m1 | MIC 100% ([9]; isolate BD3, macrodilution): 1 gg/m1 | recovery of mycelia growth after removal of drug [10]: no viable Aspergillus fumigatus mycelia | MIC 50% [11]: 2 gg/m1 | MIC 100% [11]: 2 gg/m1 | MIC ([12]; read-out: MIC, concentration resulting in 50% inhibition of yeast growth): 5.4 µM (≈ 2.49 µg/mL) | MIC ([12]; read-out: MIC, concentration resulting in 90% inhibition of yeast growth): 15.9 µM (≈ 7.32 µg/mL) | concentration that effectively prevents growth ([12]; stated for all three fungi): 8 to 40 µM | MIC 50% ([13]; isolate SA1, 72 hours): 2 gg/m1 | MIC 100% ([13]; isolate SA1, 72 hours): 2 gg/m1 | MIC 50% ([13]; isolate SA2, 72 hours): 1 gg/m1 | MIC 100% ([13]; isolate SA2, 72 hours): 2 gg/m1 | MIC 50% [14]: 4 gg/m1 | MIC 100% [14]: 4 gg/m1
